The results in this text go back to US12157730B2, “Heteroaryl derivative, method for producing same, and pharmaceutical composition comprising same as effective component” (VORONOI INC., priority 2019, dated 2024).

The target in this test is T1, Ba/F3 cell EGFR Exon20 ins NPH (Homo sapiens, UniProt P00533, INS773NPH).
T1 construct: expressed in transfected cells; host or cells: Ba/F3
Briefly: Ba/F3 cell proliferation suppression, EGFR Exon20 ins NPH. In kind it is cell-based. The settings on record: GI50 class; Ba/F3 cell line with NPH inserted at Exon20 of EGFR; 72 hours. A digest of the protocol:
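Cells were seeded 24 h before dosing and then treated for 72 hours with compound at final concentrations of 0.3 nM to 50 um. Live cells were measured by CellTiter-Glo luminescence, and GI50 values were derived from growth ratio relative to control across three repeats.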
Regarding `C=CC(=O)Nc1cc(Nc2cc(N3OCC[C@@H]3c3cccc4ccccc34)ncn2)c(OC)cc1N1CCC(N2CCO[C@@H](C)C2)CC1` [compound 535, N-(4-methoxy-2-(4-((S)-2-methylmorpholino)piperidine-1-yl)-5-((6-((R)-3-(naphthalene-1-yl)isoxazolidine-2-yl)pyrimidine-4-yl)amino)phenyl)acrylamide], the “Ba/F3 (NPH) Activity” value is on record as “A (GI50 < 50 nM)”.
`C=CC(=O)Nc1cc(Nc2cc(N3OCC[C@@H]3c3cccc(C#N)c3)ncn2)c(OC)cc1N1CCC(N2CCN(C3COC3)CC2)CC1` [Example 196, N-(5-((6-((R)-3-(3-cyanophenyl)isoxazolidine-2-yl)pyrimidine-4-yl)amino)-4-methoxy-2-(4-(4-(oxetane-3-yl)piperazine-1-yl)piperidine-1-yl)phenyl)acrylamide]: the “Ba/F3 (NPH) Activity” value was “A (GI50 < 50 nM)”.
Take `C=CC(=O)Nc1cc(Nc2cc(N3OCC[C@@]3(C)c3ccccc3)ncn2)c(OC)cc1N1CCC(N2C[C@H]3C[C@@H]2CO3)CC1` [Example 269, N-(2-(4-((1R,4R)-2-oxa-5-azabicyclo[2.2.1]heptane-5-yl)piperidine-1-yl)-4-methoxy-5-((6-((S)-3-methyl-3-phenylisoxazolidine-2-yl)pyrimidine-4-yl)amino)phenyl) acrylamide]: the “Ba/F3 (NPH) Activity” value was “C (500 nM ≤ GI50 < 5000 nM)”.
For the molecule `C=CC(=O)Nc1cc(Nc2cc(N3OCC[C@@H]3c3ccc(F)c(F)c3)ncn2)c(OC)cc1N1CCC(N2C[C@@H]3C[C@H]2CO3)CC1` [compound 497, N-(2-(4-((1S,4S)-2-oxa-5-azabicyclo[2.2.1]heptane-5-yl)piperidine-1-yl)-5-((6-((R)-3-(3,4-difluorophenyl)isoxazolidine-2-yl)pyrimidine-4-yl)amino)-4-methoxyphenyl) acrylamide], the “Ba/F3 (NPH) Activity” value was “B (50 nM ≤ GI50 < 500 nM)”.
On to `C=CC(=O)Nc1cc(Nc2cc(N3OCC[C@@H]3c3ccc(F)cc3F)ncn2)c(OC)cc1N1CCN(C(C)C)CC1` [compound 346, N-(5-((6-((R)-3-(2,4-difluorophenyl)isoxazolidine-2-yl)pyrimidine-4-yl)amino)-2-(4-isopropylpiperazine-1-yl)-4-methoxyphenyl) acrylamide], for which the “Ba/F3 (NPH) Activity” value was “A (GI50 < 50 nM)”.
Consider `C=CC(=O)Nc1cc(Nc2cc(N3OCC[C@@H]3Cc3cccc(F)c3)ncn2)c(OC)cc1N1CCC(N2C[C@H]3CC[C@@H](C2)N3C2CC2)CC1` [compound 995, N-(2-(4-((1R,5S)-8-cyclopropyl-3,8-diazabicyclo [3.2.1]octan-3-yl)piperidine-1-yl)-5-((6-((S)-3-(3-fluorobenzyl)isoxazolidine-2-yl)pyrimidine-4-yl)amino)-4-methoxyphenyl) acrylamide], for which the “Ba/F3 (NPH) Activity” value is given as “A (GI50 < 50 nM)”.
As to `C=CC(=O)Nc1cc(Nc2cc(N3OCC[C@@H]3c3cc(F)cc(F)c3)ncn2)c(OC)cc1N1CCC(N2C[C@@H]3CCN(C)[C@@H]3C2)CC1` [compound 446, N-(5-((6-((R)-3-(3,5-difluorophenyl)isoxazolidine-2-yl)pyrimidine-4-yl)amino)-4-methoxy-2-(4-((3aS,6aS)-1-methylhexahydropyrrolo [3,4-b]pyrrole-5(1H)-yl)piperidine-1-yl)phenyl)acrylamide], the “Ba/F3 (NPH) Activity” value is listed as “A (GI50 < 50 nM)”.
Turning to `C=CC(=O)Nc1cc(Nc2cc(N3OCC[C@@H]3c3cc(F)cc(Cl)c3)ncn2)c(OC)cc1N1CCC(N2C[C@H]3CCN(C)[C@H]3C2)CC1` [compound 539, N-(5-((6-((R)-3-(3-chloro-5-fluorophenyl)isoxazolidine-2-yl)pyrimidine-4-yl)amino)-4-methoxy-2-(4-((3aR,6aR)-1-methylhexahydropyrrolo [3,4-b]pyrrole-5(1H)-yl)piperidine-1-yl)phenyl)acrylamide], the “Ba/F3 (NPH) Activity” value is “A (GI50 < 50 nM)”.
For the molecule `C=CC(=O)Nc1cc(Nc2cc(N3OCC[C@@H]3c3cccc(Cl)c3C)ncn2)c(OC)cc1N1CCC(N2C[C@H]3C[C@@H]2CO3)CC1` [compound 532, N-(2-(4-((1R,4R)-2-oxa-5-azabicyclo[2.2.1]heptane-5-yl)piperidine-1-yl)-5-((6-((R)-3-(3-chloro-2-methylphenyl)isoxazolidine-2-yl)pyrimidine-4-yl)amino)-4-methoxyphenyl) acrylamide], the “Ba/F3 (NPH) Activity” value is “A (GI50 < 50 nM)”.
Consider `C=CC(=O)Nc1cc(Nc2cc(N3OCC[C@@H]3c3cccc(C)c3F)ncn2)c(OC)cc1N1CCC(N(C)C)CC1` [compound 864, N-(2-(4-(dimethylamino)piperidine-1-yl)-5-((6-((R)-3-(2-fluoro-3-methylphenyl)isoxazolidine-2-yl)pyrimidine-4-yl)amino)-4-methoxyphenyl) acrylamide], for which the “Ba/F3 (NPH) Activity” value was “A (GI50 < 50 nM)”.
With `C=CC(=O)Nc1cc(Nc2cc(N3OCC[C@@H]3c3cc(F)cc(F)c3)ncn2)c(OC)cc1N1CCC(N2CCN(CC3CC3)CC2)CC1` [Example 92, N-(2-(4-(4-(cyclopropylmethyl)piperazine-1-yl)piperidine-1-yl)-5-((6-((R)-3-(3,5-difluorophenyl)isoxazolidine-2-yl)pyrimidine-4-yl)amino)-4-methoxyphenyl) acrylamide], the “Ba/F3 (NPH) Activity” value is listed as “A (GI50 < 50 nM)”.
For the molecule `C=CC(=O)Nc1cc(Nc2cc(N3OCC[C@@H]3c3cccc(F)c3F)ncn2)c(OC)cc1N1C[C@H]2CCN(C)[C@H]2C1` [compound 875, N-(5-((6-((R)-3-(2,3-difluorophenyl)isoxazolidine-2-yl)pyrimidine-4-yl)amino)-4-methoxy-2-((3aR,6aR)-1-methylhexahydropyrrolo [3,4-b]pyrrole-5(1H)-yl)phenyl) acrylamide], the “Ba/F3 (NPH) Activity” value is reported as “A (GI50 < 50 nM)”.
For `C=CC(=O)Nc1cc(Nc2cc(N3OCC[C@@H]3c3cccc4ccccc34)ncn2)c(OC)cc1N1CCC(N(C)C)CC1` [compound 442, N-(2-(4-methoxy-5-((6-(dimethylamino)piperidine-1-yl)-4-((R)-3-(naphthalene-1-yl)isoxazolidine-2-yl)pyrimidine-4-yl)amino)phenyl) acrylamide], the “Ba/F3 (NPH) Activity” value is “A (GI50 < 50 nM)”.
In the case of `C=CC(=O)Nc1cc(Nc2cc(N3OCC[C@@H]3c3ccc(C)nc3)ncn2)c(OC)cc1N1CCC(N(C)CCOC)CC1` [Example 229, N-(4-methoxy-2-(4-((2-methoxyethyl)(methyl)amino)piperidine-1-yl)-5-((6-((R)-3-(6-methylpyridine-3-yl)isoxazolidine-2-yl)pyrimidine-4-yl)amino)phenyl)acrylamide], the “Ba/F3 (NPH) Activity” value is reported as “B (50 nM ≤ GI50 < 500 nM)”.
`C=CC(=O)Nc1cc(Nc2cc(N3OCC[C@@H]3c3cccc(F)c3F)ncn2)c(OC)cc1N1CCC(N2CCOCC2)CC1` [compound 920, N-(5-((6-((R)-3-(2,3-difluorophenyl)isoxazolidine-2-yl)pyrimidine-4-yl)amino)-4-methoxy-2-(4-morpholinopiperidine-1-yl)phenyl)acrylamide]: the “Ba/F3 (NPH) Activity” value is “A (GI50 < 50 nM)”.
In the case of `C=CC(=O)Nc1cc(Nc2cc(N3OCC[C@@H]3c3cccc(C)c3F)ncn2)c(OC)cc1N1CCC(N2C[C@@H](C)N(C3CC3)C[C@H]2C)CC1` [Example 124, N-(2-(4-((2R,5R)-4-cyclopropyl-2,5-dimethylpiperazine-1-yl)piperidine-1-yl)-5-((6-((R)-3-(2-fluoro-3-methylphenyl)isoxazolidine-2-yl)pyrimidine-4-yl)amino)-4-methoxyphenyl) acrylamide], the “Ba/F3 (NPH) Activity” value was “A (GI50 < 50 nM)”.
